Measurements taken from the Deep4Chem optical property database.

Experiment: photoluminescence quantum yield (fraction); solvent given as SMILES
[1] = in O=P(c1ccccc1)(c1ccccc1)c1ccccc1Oc1ccccc1P(=O)(c1ccccc1)c1ccccc1

SMILES: CC[N+](CC)=c1ccc2c(-c3ccccc3C(=O)O)c3oc4cc(N)ccc4c3oc-2c1
- photoluminescence quantum yield (in CCO): 0.778
- photoluminescence quantum yield (in ClCCl): 0.726
- photoluminescence quantum yield (in O): 0.126

SMILES: CCCC1(CCC)c2cc(-c3ccc(C(C)(C)C)cc3)ccc2-c2ccc(-c3ccc4c(c3)C(CCC)(CCC)c3cc(-c5ccc(C(C)(C)C)cc5)ccc3-4)cc21
- photoluminescence quantum yield (in C1CCCCC1): 0.92

SMILES: COc1ccc(-c2c(OC)ccc3nnn(C[C@H](N)C(=O)O)c23)cc1
- photoluminescence quantum yield (in CO): 0.09

SMILES: COC(=O)c1[nH]c(-c2ccc(Br)cc2)c2nnc3ccc(OC)cc3c12
- photoluminescence quantum yield (in ClCCl): 0.114

SMILES: Cc1ccccc1C1=C2C=CC(=[N+](C)C)C=C2[Si](C)(C)c2cc(N(C)C)ccc21
- photoluminescence quantum yield (in O): 0.31

SMILES: CC(C)CCC[C@@H](C)[C@H]1CC[C@H]2[C@@H]3CC=C4C[C@@H](OC(=O)Oc5cc(/C=C/C=C/c6ccc(N(C)C)cc6)ccc5[N+](=O)[O-])CC[C@]4(C)[C@H]3CC[C@]12C
- photoluminescence quantum yield (in C1CCCCC1): 0.29
- photoluminescence quantum yield (in C1COCCO1): 0.08
- photoluminescence quantum yield (in CCCCCCC): 0.28
- photoluminescence quantum yield (in Cc1ccccc1): 0.17

SMILES: COc1cc(OC)cc(C2=C3C(C)=C(I)C(C)=[N+]3[B-](F)(F)n3c(/C=C/c4ccsc4)c(I)c(C)c32)c1
- photoluminescence quantum yield (in C1CCOC1): 0.3
- photoluminescence quantum yield (in CS(C)=O): 0.15
- photoluminescence quantum yield (in ClCCl): 0.4

SMILES: C[N+]1=C(/C=C/C=C2/N(CCCS(=O)(=O)[O-])c3ccccc3C2(C)C)C(C)(C)c2ccccc21
- photoluminescence quantum yield (in CS(C)=O): 0.1

SMILES: c1ccc(-c2nc(-c3ccc(-c4cccs4)s3)[nH]c2-c2ccccc2)cc1
- photoluminescence quantum yield (in CC#N): 0.24

SMILES: CCCCN(CCCC)c1ccc(C#Cc2cc(C#Cc3ccc(N(CCCC)CCCC)cc3)c(C#Cc3cc(C(F)(F)F)cc(C(F)(F)F)c3)cc2C#Cc2cc(C(F)(F)F)cc(C(F)(F)F)c2)cc1
- photoluminescence quantum yield (in ClCCl): 0.34

SMILES: CCCCN(CCCC)c1ccc2c#cc3cc4c#cc5ccc(C(F)(F)F)cc5c#cc#cc5cc(C(F)(F)F)ccc5c#cc4cc3c#cc3ccc(N(CCCC)CCCC)cc3c#cc#cc2c1
- photoluminescence quantum yield (in ClCCl): 0.35

SMILES: Cc1cc(C)c(B(c2c(C)cc(C)cc2C)N2c3ccccc3C(C)(C)c3ccccc32)c(C)c1
- photoluminescence quantum yield (in C1CCCCC1): 0.931
- photoluminescence quantum yield (in Cc1ccccc1): 0.802
- photoluminescence quantum yield (in ClCCl): 0.9

SMILES: Cc1ccccc1-c1c2ccc(=[N+]3CCCC3)cc-2oc2cc(N3CCCC3)ccc12
- photoluminescence quantum yield (in CCO): 0.95
- photoluminescence quantum yield (in ClCCl): 1

SMILES: c1ccc(-n2c3ccccc3c3c2c2ccccc2n3-c2ccccc2)cc1
- photoluminescence quantum yield (in Cc1ccccc1): 0.404

SMILES: CCN(CC)c1ccc2cc(-c3nc4ccccc4s3)c(=O)oc2c1
- photoluminescence quantum yield (in C1CCCCC1): 0.59
- photoluminescence quantum yield (in CC1CCCCC1): 0.56
- photoluminescence quantum yield (in CC#N): 0.43
- photoluminescence quantum yield (in CCC(C)CC): 0.57
- photoluminescence quantum yield (in CCCCCC): 0.57
- photoluminescence quantum yield (in CCOC(C)=O): 0.47

SMILES: COC(=O)C(NC(=O)OC(C)(C)C)c1ccc2oc(-c3ccc(F)cc3)nc2c1 (stereo unspecified)
- photoluminescence quantum yield (in CC1CCCCC1): 0.49
- photoluminescence quantum yield (in CC#N): 0.46
- photoluminescence quantum yield (in CO): 0.48

SMILES: CSc1cc(-c2cc3cc4c5c(c3oc2=O)CCCN5CCC4)oc(=O)c1C#N
- photoluminescence quantum yield (in C1CCOC1): 0.9
- photoluminescence quantum yield (in CC#N): 0.29
- photoluminescence quantum yield (in CC(C)=O): 0.43
- photoluminescence quantum yield (in CCOC(C)=O): 0.67
- photoluminescence quantum yield (in CN(C)C=O): 0.26
- photoluminescence quantum yield (in CO): 0.22
- photoluminescence quantum yield (in CS(C)=O): 0.29
- photoluminescence quantum yield (in Cc1ccccc1): 0.71
- photoluminescence quantum yield (in ClC(Cl)Cl): 0.53
- photoluminescence quantum yield (in ClCCl): 0.63

SMILES: CCCCCCCCCCCCCCCCOc1cc(C#Cc2ccc3ccccc3c2)c(OCCCCCCCCCCCCCCCC)cc1C#Cc1ccc(C=C(C#N)C#N)cc1
- photoluminescence quantum yield (in Brc1ccccc1): 0.43
- photoluminescence quantum yield (in C1CCCCC1): 0.9
- photoluminescence quantum yield (in C1CCOC1): 0.5
- photoluminescence quantum yield (in C1COCCO1): 0.5
- photoluminescence quantum yield (in CCCCCC): 0.87
- photoluminescence quantum yield (in CCCCCCCCO): 0.35
- photoluminescence quantum yield (in CCCCOCCCC): 0.81
- photoluminescence quantum yield (in CCOC(C)=O): 0.23
- photoluminescence quantum yield (in CCOCC): 0.79
- photoluminescence quantum yield (in Cc1ccccc1): 0.82
- photoluminescence quantum yield (in ClC(Cl)(Cl)Cl): 0.81
- photoluminescence quantum yield (in ClC(Cl)Cl): 0.78
- photoluminescence quantum yield (in ClCCl): 0.19

SMILES: CC1(C)c2ccccc2-n2c(-c3ccc(N4c5ccccc5Sc5ccccc54)cc3)nc3cccc1c32
- photoluminescence quantum yield (in Cc1ccccc1): 0.08
- photoluminescence quantum yield [1]: 0.05

SMILES: Oc1ccccc1-c1nc2c3ccccc3c3ccccc3c2o1
- photoluminescence quantum yield (in Cc1ccccc1): 0.003

SMILES: Cc1cc2c3ccccc3oc2c2[nH]c3ccccc3c12
- photoluminescence quantum yield (in ClCCl): 0.444

SMILES: CC1=CC(c2ccc3cc(N(C)C)ccc3c2)=[O+][B-](F)(F)O1
- photoluminescence quantum yield (in C1CCOC1): 0.91
- photoluminescence quantum yield (in CC#N): 0.14
- photoluminescence quantum yield (in CC(C)=O): 0.53
- photoluminescence quantum yield (in CS(C)=O): 0.22
- photoluminescence quantum yield (in Cc1ccccc1): 0.93
- photoluminescence quantum yield (in ClC(Cl)Cl): 0.97
- photoluminescence quantum yield (in ClCCl): 0.99

SMILES: CCCc1cc2c(s1)-c1cc3c(cc1NB2c1ccccc1)-c1sc(CCC)cc1B(c1ccccc1)N3
- photoluminescence quantum yield (in ClCCl): 0.19

SMILES: [NH3+]C(Cc1ccc(O)c(O)c1)C(=O)[O-] (stereo unspecified)
- photoluminescence quantum yield (in O): 0.075

SMILES: CCCCCCCCCCCCOc1ccc(C#CC(C#Cc2ccc(OCCCCCCCCCCCC)cc2)=Cc2cc(C=C(C#Cc3ccc(OCCCCCCCCCCCC)cc3)C#Cc3ccc(OCCCCCCCCCCCC)cc3)cc(C=C(C#Cc3ccc(OCCCCCCCCCCCC)cc3)C#Cc3ccc(OCCCCCCCCCCCC)cc3)c2)cc1
- photoluminescence quantum yield (in CCOC(C)=O): 0.35

SMILES: CCCCNC(=O)c1sc(-c2ccc(-c3cc(-c4ccc(C(C)(C)C)cc4)c(C(=O)NCCCC)s3)s2)cc1-c1ccc(C(C)(C)C)cc1
- photoluminescence quantum yield (in ClCCl): 0.32

SMILES: CCN(CC)c1ccc(C(=C(c2ccc(B(c3c(C)cc(C)cc3C)c3c(C)cc(C)cc3C)cc2)c2ccc(B(c3c(C)cc(C)cc3C)c3c(C)cc(C)cc3C)cc2)c2ccc(N(CC)CC)cc2)cc1
- photoluminescence quantum yield (in C1CCOC1): 0.29

SMILES: c1ccc(-c2ccc(-c3ccc(-n4c5ccccc5c5ccccc54)cc3)c3nsnc23)cc1
- photoluminescence quantum yield (in C1CCOC1): 0.426
- photoluminescence quantum yield (in CC(C)=O): 0.059
- photoluminescence quantum yield (in CCCCCC): 0.697
- photoluminescence quantum yield (in CCOCC): 0.599

SMILES: F[B-]1(F)Oc2ccccc2-c2cc(-n3c4ccc(-c5ccccc5)cc4c4cc(-c5ccccc5)ccc43)cc[n+]21
- photoluminescence quantum yield [1]: 0.7

SMILES: CCC(C)(C)c1ccc2c(c1)C(CC)(CC)c1cc(-c3ccc(-c4ccc5c(c4)C(CC)(CC)c4cc(C(C)(C)CC)ccc4-5)cc3)ccc1-2
- photoluminescence quantum yield (in C1CCCCC1): 1

SMILES: Fc1ccc(-c2c3ccccc3nc3cc4ccccc4cc23)cc1
- photoluminescence quantum yield (in ClCCl): 0.48

SMILES: Cc1ccc(C2=Cc3ccc4ccccc4[n+]3[B-](F)(F)O2)cc1
- photoluminescence quantum yield (in ClC(Cl)Cl): 0.75

SMILES: CCCCCCC(CCCCCC)N1C(=O)c2cccc3c(-c4ccc(-c5ccc(OC)cc5)cc4)ccc(c23)C1=O
- photoluminescence quantum yield (in CCCCCC): 0.5
- photoluminescence quantum yield (in CCCCCCCCCCCCCC): 0.5
- photoluminescence quantum yield (in CCCCCCCCCCCO): 0.56
- photoluminescence quantum yield (in CCCCO): 0.16
- photoluminescence quantum yield (in CN(C)C=O): 0.15
- photoluminescence quantum yield (in Cc1ccccc1): 0.4
- photoluminescence quantum yield (in ClC(Cl)Cl): 0.67

SMILES: CC1=N/C(=C\c2cccc(N(C)C)c2)C(=O)N1C
- photoluminescence quantum yield (in C1CCOC1): 0.14
- photoluminescence quantum yield (in CC#N): 0.05
- photoluminescence quantum yield (in CCCCCC): 0.46

SMILES: c1ccc(N2c3ccc4ccccc4c3-c3c4ccccc4cn[n+]3[B-]2(c2ccccc2)c2ccccc2)cc1
- photoluminescence quantum yield (in Cc1ccccc1): 0.05

SMILES: N#C/C=C/c1ccc2ccc3cccc4ccc1c2c34
- photoluminescence quantum yield (in C1CCOC1): 0.72
- photoluminescence quantum yield (in C1COCCO1): 0.63
- photoluminescence quantum yield (in CC#N): 0.32
- photoluminescence quantum yield (in CC(C)=O): 0.62
- photoluminescence quantum yield (in CCCCCC): 0.53
- photoluminescence quantum yield (in CCOC(C)=O): 0.62
- photoluminescence quantum yield (in CO): 0.44
- photoluminescence quantum yield (in Cc1ccccc1): 0.55

SMILES: CCCCCCc1cc(B(c2c(C)cc(C)cc2C)c2c(C)cc(C)cc2C)c(-c2sc(CCCCCC)cc2P(=O)(c2ccccc2)c2ccccc2)s1
- photoluminescence quantum yield (in CO): 0.17

SMILES: COc1cc(C2=CC3=C(c4c(C)cc(C)cc4C)c4cc(-c5cc(OC)c(OC)c(OC)c5)c(-c5cc(OC)c(OC)c(OC)c5)n4[B-](F)(F)[N+]3=C2c2cc(OC)c(OC)c(OC)c2)cc(OC)c1OC
- photoluminescence quantum yield (in C1CCCCC1): 0.33
- photoluminescence quantum yield (in C1CCOC1): 0.08
- photoluminescence quantum yield (in CC#N): 0.02
- photoluminescence quantum yield (in Cc1ccccc1): 0.16
- photoluminescence quantum yield (in ClCCl): 0.05

SMILES: CC(C)(C)c1ccc2c(c1)c1cc(C(C)(C)C)ccc1n2-c1ccc(-c2ccc3c(c2)C2(c4cc(-c5ccc(-n6c7ccc(C(C)(C)C)cc7c7cc(C(C)(C)C)ccc76)cc5)ccc4-3)c3ccccc3S(=O)(=O)c3ccccc32)cc1
- photoluminescence quantum yield (in ClCCl): 0.88
- photoluminescence quantum yield (in c1cc(-n2c3ccccc3c3ccccc32)cc(-n2c3ccccc3c3ccccc32)c1): 0.83

SMILES: CCCCN1/C(=C/C=C/C2=[N+](C)c3ccccc3C2(C)C)C(C)(C)c2cc(OC)ccc21
- photoluminescence quantum yield (in CS(C)=O): 0.03

SMILES: COc1ccc(/C=C(\C)c2nc3ccccc3s2)cc1
- photoluminescence quantum yield (in C1CCCCC1): 0.001

SMILES: Cc1cc2ccccc2c2c1c1ccccc1n2C(=O)OC(C)(C)C
- photoluminescence quantum yield (in ClCCl): 0.185

SMILES: C#Cc1ccc2ccc3oc(=O)cc(C)c3c2c1
- photoluminescence quantum yield (in CCO): 0.23

SMILES: CCCCC(CC)Cn1c2cc(C#N)ccc2c2ccc(C#Cc3ccc4ccc5ccc(C#Cc6ccc7c8ccc(C#N)cc8n(CC(CC)CCCC)c7c6)c6ccc3c4c56)cc21 (stereo unspecified)
- photoluminescence quantum yield (in ClCCl): 0.51

SMILES: CCCCCCc1ccc(-n2c3[n+](c4c5ccccc5c5ccccc5c42)[B-](C)(C)c2ccc4ccccc4c2-3)cc1
- photoluminescence quantum yield (in C1CCOC1): 0.11
- photoluminescence quantum yield (in CC#N): 0.07
- photoluminescence quantum yield (in Cc1ccccc1): 0.16
- photoluminescence quantum yield (in ClCCl): 0.08

SMILES: N#Cc1cccc(C#N)c1-c1ccc(N2c3ccccc3C3(c4ccccc42)c2ccccc2N(c2ccc(-c4c(C#N)cccc4C#N)cc2)c2ccccc23)cc1
- photoluminescence quantum yield [1]: 0.65

SMILES: Cc1cc(N(C)C)cc(C)c1/C=C/C=C/c1ccc(C#N)cc1
- photoluminescence quantum yield (in C1CCOC1): 0.087
- photoluminescence quantum yield (in CC#N): 0.212
- photoluminescence quantum yield (in CCCCCC): 0.043
- photoluminescence quantum yield (in CCCCOCCCC): 0.061
- photoluminescence quantum yield (in CCO): 0.168
- photoluminescence quantum yield (in CCOCC): 0.082

SMILES: CCCCN(CCCC)c1ccc(/C=C/c2ccc3c(c2)CCc2cc(/C=C/c4ccc(N(CCCC)CCCC)cc4)ccc2-3)cc1
- photoluminescence quantum yield (in CS(C)=O): 0.87
- photoluminescence quantum yield (in Cc1ccccc1): 0.71

SMILES: CCCCCCCCn1c2ccc(/C=C/c3ccc(N(c4ccccc4)c4ccccc4)cc3)cc2c2cc3c(cc21)c1cc(/C=C/c2ccc(N(c4ccccc4)c4ccccc4)cc2)ccc1n3CCCCCCCC
- photoluminescence quantum yield (in Cc1ccccc1): 0.6
